Test results taken from ChEMBL document CHEMBL5537193, “Multitargeting HDAC Inhibitors Containing a RAS/RAF Protein Interfering Unit” (J Med Chem, 2024).
Active and inactive are the calls of the source. The calls are words filed in the database; no cut-off is given here.

Legend:
PANC-1 [1] = assay: Induction of apoptosis in human PANC-1 cells incubated for 24 hrs by flow cytometric analysis; assay type: functional, cell-based; conditions: dose 1-4 µM
PANC-1 [2] = assay: Inhibition of MAPK signaling pathway in human PANC-1 cells assessed as inhibition of ERK1/2 phosphorylation at 2 uM incubated for 24 hrs by Western blot analysis; assay type: cell-based
[3] = Toxicity in BALB/c nude mouse xenografted with human HT-29 cells assessed as change in body weight at 7.5 to 15 mg/kg, ip administered once every 2 days for 12 times for 24 days; assay type: organism-based; conditions: in vivo, 576 h, dose 7.5-15 mg/kg, time 24 day
Histone deacetylase 4 = Histone deacetylase 4 (Homo sapiens, UniProt P56524); assay: Inhibition of HDAC4 (unknown origin)
Mus musculus [4] = assay: In vivo inhibition of HDAC3 in BALB/c mouse xenografted with human HT-29 cells assessed as induction of alpha-tubulin acetylation administered intraperitoneally once every 2 days for 12 times and measured after 24 days by Western blot analysis; assay type: functional; conditions: dose 7.5-15 mg/kg, route ip, time 24.0 day
[5] = Toxicity in BALB/c nude mouse xenografted with human HT-29 cells assessed as change in liver histopathology at 10 to 15 mg/kg, ip administered once daily for 24 days by H&E staining based analysis; assay type: organism-based; conditions: in vivo, 576 h, dose 10-15 mg/kg, time 24 day
[6] = AUC (0 to infinity) in Sprague-Dawley rat at 15 mg/kg, ip measured after 24 hrs by LC-MS/MS analysis; assay type: ADME, organism-based; conditions: in vivo
HT-29 [7] = assay: Induction of apoptosis in human HT-29 cells incubated for 24 hrs by flow cytometric analysis; assay type: functional, cell-based; conditions: dose 1-4 µM
HT-29 [8] = assay: Antitumor activity against human HT-29 cells xenografted in BALB/c nude mouse assessed as tumor growth inhibition at 15 mg/kg, ip administered once a day for 24 days relative to control; assay type: functional; conditions: HT-29, 576 h, time 24 day, read-out: TGI
[9] = Metabolic stability in mouse liver microsomes assessed as intrinsic clearance at 1 uM measured upto 40 mins by LC-MS/MS analysis; assay type: ADME, Microsome; conditions: read-out: CLH
[10] = Tmax in Sprague-Dawley rat at 15 mg/kg, ip measured after 24 hrs by LC-MS/MS analysis; assay type: ADME, organism-based; conditions: in vivo
[11] = Toxicity in BALB/c nude mouse xenografted with human HT-29 cells assessed as change in kidney histopathology at 10 to 15 mg/kg, ip administered once daily for 24 days by H&E staining based analysis; assay type: organism-based; conditions: in vivo, 576 h, dose 10-15 mg/kg, time 24 day
A-431 = assay: cells; conditions: Homo sapiens, A-431, 72 h
Description: Cytotoxicity against human A-431 cells assessed as inhibition of cell growth incubated for 72 hrs by MTT assay

PANC-1 [12] = assay: Effect on MEK protein expression in human PANC-1 cells at 2 uM incubated for 24 hrs by Western blot analysis; assay type: functional, cell-based
[13] = MRT (0 to t) in Sprague-Dawley rat at 15 mg/kg, ip measured after 24 hrs by LC-MS/MS analysis; assay type: ADME, organism-based; conditions: in vivo
[14] = Toxicity in BALB/c nude mouse xenografted with human HT-29 cells assessed as change in lung histopathology at 10 to 15 mg/kg, ip administered once daily for 24 days by H&E staining based analysis; assay type: organism-based; conditions: in vivo, 576 h, dose 10-15 mg/kg, time 24 day
HT-29 [15] = assay: Inhibition of MAPK signaling pathway in human HT-29 cells assessed as inhibition of C-RAF phosphorylation at Ser338 residue at 2 uM incubated for 24 hrs by Western blot analysis; assay type: cell-based
HT-29 [16] = assay: Antitumor activity against human HT-29 cells xenografted in BALB/c nude mouse assessed as tumor growth inhibition administered intraperitoneally once a day for 24 days; assay type: functional, cell-based; conditions: route ip, time 24.0 day
PANC-1 [17] = assay: Induction of apoptosis in human PANC-1 cells assessed as increase in cleaved PARP expression level at 2 uM incubated for 24 hrs by Western blot analysis; assay type: functional, cell-based
HT-29 [18] = assay: Effect on ERK1/2 expression in tumor of BALB/c mouse xenografted with human HT-29 cells at 7.5 to 15 mg/kg, ip administered once every 2 days for 12 times and measured after 24 days by Western blot analysis; assay type: functional, organism-based; conditions: Neoplasm, dose 7.5-15 mg/kg, time 24.0 day
HT-29 [19] = assay: Effect on Histone H3 expression in tumor of BALB/c mouse xenografted with human HT-29 cells at 7.5 to 15 mg/kg, ip administered once every 2 days for 12 times and measured after 24 days by Western blot analysis; assay type: functional, organism-based; conditions: Neoplasm, dose 7.5-15 mg/kg, time 24.0 day
[20] = target: T1, Serine/threonine-protein kinase PLK1 (Homo sapiens, UniProt P53350); assay: Inhibition of PLK1 (unknown origin)
HT-29 [21] = assay: Antitumor activity against human HT-29 xenografted in BALB/c nude mouse assessed as tumor growth inhibition at 15 mg/kg, ip administered once every 2 days for 12 times for 24 days relative to control; assay type: functional; conditions: HT-29, 576 h, time 24 day, read-out: TGI
PANC-1 [22] = assay: Induction of apoptosis in human PANC-1 cells assessed as increase in cleaved caspase-9 expression level at 2 uM incubated for 24 hrs by Western blot analysis; assay type: functional, cell-based
HT-29 [23] = assay: Effect on alpha-tubulin expression in human HT-29 cells at 2 uM incubated for 24 hrs by Western blot analysis; assay type: functional, cell-based
PANC-1 [24] = assay: Inhibition of MAPK signaling pathway in human PANC-1 cells assessed as inhibition of MEK phosphorylation at 2 uM incubated for 24 hrs by Western blot analysis; assay type: cell-based
HT-29 [25] = assay: Effect on ERK1/2 protein expression in human HT-29 cells at 2 uM incubated for 24 hrs by Western blot analysis; assay type: functional, cell-based
HT-29 [26] = assay: Inhibition of MAPK signaling pathway in human HT-29 cells assessed as inhibition of MEK phosphorylation at 2 uM incubated for 24 hrs by Western blot analysis; assay type: cell-based
[27] = target: T1, Serine/threonine-protein kinase PLK1; assay: Inhibition of PLK1 (unknown origin) at 10 uM relative to control
L02 = assay: cells; conditions: Homo sapiens, L02, 72 h
Description: Cytotoxicity against human L02 cells assessed as inhibition of cell growth incubated for 72 hrs by MTT assay

MCF7 = assay: cells; conditions: Homo sapiens, MCF7, 72 h
Description: Cytotoxicity against human MCF7 cells assessed as inhibition of cell growth incubated for 72 hrs by MTT assay

[28] = Toxicity in BALB/c nude mouse xenografted with human HT-29 cells assessed as change in heart histopathology at 10 to 15 mg/kg, ip administered once daily for 24 days by H&E staining based analysis; assay type: organism-based; conditions: in vivo, 576 h, dose 10-15 mg/kg, time 24 day
K562 = assay: cells; conditions: Homo sapiens, K562, 72 h
Description: Cytotoxicity against human K562 cells assessed as inhibition of cell growth incubated for 72 hrs by MTT assay

[29] = Metabolic stability in human liver microsomes assessed as intrinsic clearance at 1 uM measured upto 40 mins by LC-MS/MS analysis; assay type: ADME, Microsome; conditions: read-out: CLH
[30] = Metabolic stability in rat liver microsomes assessed as intrinsic clearance at 1 uM measured upto 40 mins by LC-MS/MS analysis; assay type: ADME, Microsome; conditions: read-out: CLH
HT-29 [31] = assay: Effect on MEK protein expression in human HT-29 cells at 2 uM incubated for 24 hrs by Western blot analysis; assay type: functional, cell-based
PANC-1 [32] = assay: Induction of apoptosis in human PANC-1 cells assessed as increase in cleaved caspase-3 expression level at 2 uM incubated for 24 hrs by Western blot analysis; assay type: functional, cell-based
Mus musculus [33] = assay: In vivo inhibition of MAPK signaling pathway in BALB/c mouse xenografted with human HT-29 cells assessed as inhibition of ERK1/2 phosphorylation administered intraperitoneally once every 2 days for 12 times and measured after 24 days by Western blot analysis; assay type: functional; conditions: dose 7.5-15 mg/kg, route ip, time 24.0 day

T1 sequence (P53350 whole entry): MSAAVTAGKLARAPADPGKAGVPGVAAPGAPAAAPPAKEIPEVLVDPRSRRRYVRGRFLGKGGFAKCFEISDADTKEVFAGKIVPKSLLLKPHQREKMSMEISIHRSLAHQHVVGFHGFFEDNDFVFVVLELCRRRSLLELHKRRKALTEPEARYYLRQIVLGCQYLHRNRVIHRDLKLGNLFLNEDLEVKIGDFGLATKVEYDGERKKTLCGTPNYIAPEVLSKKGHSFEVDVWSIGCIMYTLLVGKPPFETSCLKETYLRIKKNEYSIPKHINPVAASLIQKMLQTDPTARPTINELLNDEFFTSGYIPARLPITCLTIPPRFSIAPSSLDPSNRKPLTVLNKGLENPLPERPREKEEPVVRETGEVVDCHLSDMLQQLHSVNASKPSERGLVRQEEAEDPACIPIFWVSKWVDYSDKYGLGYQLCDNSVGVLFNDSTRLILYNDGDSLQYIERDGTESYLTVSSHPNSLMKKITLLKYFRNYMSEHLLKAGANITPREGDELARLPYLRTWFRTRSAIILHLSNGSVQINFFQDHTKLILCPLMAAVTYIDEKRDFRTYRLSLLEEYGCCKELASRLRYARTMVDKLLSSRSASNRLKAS
Histone deacetylase 4, sequence (P56524 whole entry): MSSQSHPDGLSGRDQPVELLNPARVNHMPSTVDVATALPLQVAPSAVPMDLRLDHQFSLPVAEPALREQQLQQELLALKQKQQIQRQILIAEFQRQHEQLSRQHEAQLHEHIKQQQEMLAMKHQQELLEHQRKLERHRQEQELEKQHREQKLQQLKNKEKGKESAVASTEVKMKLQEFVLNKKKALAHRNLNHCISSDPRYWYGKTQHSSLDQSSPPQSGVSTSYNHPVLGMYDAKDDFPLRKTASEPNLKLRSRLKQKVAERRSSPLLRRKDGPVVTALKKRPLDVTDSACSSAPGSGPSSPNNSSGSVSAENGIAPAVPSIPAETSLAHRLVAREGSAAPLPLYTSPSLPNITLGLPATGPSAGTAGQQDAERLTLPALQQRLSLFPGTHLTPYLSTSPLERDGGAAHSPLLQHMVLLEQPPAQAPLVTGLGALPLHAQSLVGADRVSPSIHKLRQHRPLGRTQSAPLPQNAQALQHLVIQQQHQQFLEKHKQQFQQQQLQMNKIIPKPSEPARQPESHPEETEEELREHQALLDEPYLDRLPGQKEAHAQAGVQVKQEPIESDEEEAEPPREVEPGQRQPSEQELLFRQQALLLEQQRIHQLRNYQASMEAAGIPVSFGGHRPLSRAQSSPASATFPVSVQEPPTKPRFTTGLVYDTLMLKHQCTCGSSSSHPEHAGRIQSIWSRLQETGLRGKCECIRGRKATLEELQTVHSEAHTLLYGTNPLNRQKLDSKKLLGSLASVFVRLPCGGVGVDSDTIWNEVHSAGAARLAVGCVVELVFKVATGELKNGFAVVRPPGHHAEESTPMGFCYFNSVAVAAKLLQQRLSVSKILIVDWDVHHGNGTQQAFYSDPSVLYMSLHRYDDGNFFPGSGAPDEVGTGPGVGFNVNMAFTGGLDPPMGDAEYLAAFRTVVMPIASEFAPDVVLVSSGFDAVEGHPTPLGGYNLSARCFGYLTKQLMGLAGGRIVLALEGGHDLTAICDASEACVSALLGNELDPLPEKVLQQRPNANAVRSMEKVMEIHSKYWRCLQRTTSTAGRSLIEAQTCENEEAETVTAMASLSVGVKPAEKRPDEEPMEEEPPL

COc1cc(OC)c(/C=C/S(=O)(=O)Cc2ccc(OC)c(NCC(=O)NO)c2)c(OC)c1
Activity (PANC-1 [1]): Dose-Dependent Effect | inhibition (PANC-1 [2]): Active | Activity [3]: Non-Toxic | IC50 (Histone deacetylase 4): 75 nM | inhibition (Mus musculus [4]): Dose-Dependent Effect | Activity [5]: Non-Toxic | AUC(0-inf) [6]: 5200 ng·h/mL | Activity (HT-29 [7]): Dose-Dependent Effect | inhibition in vivo at 15 mg/kg (HT-29 [8]): 86.7% | CLint scaled at 1 µM [9]: 191 mL/min/kg | Tmax [10]: 30 min | Activity [11]: Non-Toxic | IC50 (A-431): 550 nM | Activity (PANC-1 [12]): inactive | MRT last at 24 h [13]: 80.4 min | Activity [14]: Non-Toxic | inhibition (HT-29 [15]): Active | TGI (HT-29 [16]): Dose-Dependent Effect | Activity (PANC-1 [17]): Active | Activity (HT-29 [18]): inactive | Activity (HT-29 [19]): inactive | IC50 [20]: 17.8 nM | inhibition [20]: Dose-Dependent Effect | inhibition in vivo at 15 mg/kg (HT-29 [21]): 75.2% | Activity (PANC-1 [22]): Active | Activity (HT-29 [23]): inactive | inhibition (PANC-1 [24]): Active | Activity (HT-29 [25]): inactive | inhibition (HT-29 [26]): Active | inhibition [27]: 100% | IC50 (L02): > 40000 nM | IC50 (MCF7): 240 nM | Activity [28]: Non-Toxic | IC50 (K562): 20 nM | CLint scaled at 1 µM [29]: 14 mL/min/kg | CLint scaled at 1 µM [30]: 450 mL/min/kg | Activity (HT-29 [31]): inactive | Activity (PANC-1 [32]): Active | inhibition (Mus musculus [33]): Dose-Dependent Effect
